One assay deals with BACE1 (Homo sapiens, UniProt P56817). Briefly: In vitro enzymatic BACE FRET (fluorescence resonance energy transfer) assay. It is filed as biochemical. An outline of the steps:
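Fluorescence (ex 488 nm, […]) was read after Tris addition raised pH to neutral, ending a one-hour incubation. Reaction started with 50 nM fluorophore/quencher peptide substrate in pH 4.2 acetate (0.05 M) containing 100 uM genapol and 10% DMSO final.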

For assay [1], the system named is Cells stably expressing Amyloid Precursor Protein (APP). Briefly: In vitro BACE cell-based assay (HEK cell assay): Aβ40 in conditioned medium by sandwich ELISA. Conditions: Homo sapiens. In short, it runs like this: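 Secreted Aβ40 was quantified by time-resolved fluorescence sandwich ELISA, capturing with pAb40 for 3 h at 4 °C and detecting with biotinylated 6E10 for 2 h at 4 °C. Media came from APP-expressing cells exposed 24 h to compounds (10-point series from 100 or 10 μM, 0.1% DMSO); IC50 derived from percent of control.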
For orientation: An ELISA detects its analyte on a solid surface through an enzyme-linked reagent.

Where [2] appears, read: HEK293, 24 h, Aβ40 in conditioned medium after 24 h incubation.

We go through 14 molecules from patent US8633315B2, “Substituted hydroxyethyl amine compounds as beta-secretase modulators and methods of use” (Amgen Inc., priority 2007, dated 2014).

Like-named read-outs stand apart in the source and are kept apart here.

Chain of BACE1 (P56817 46-501, species assumed): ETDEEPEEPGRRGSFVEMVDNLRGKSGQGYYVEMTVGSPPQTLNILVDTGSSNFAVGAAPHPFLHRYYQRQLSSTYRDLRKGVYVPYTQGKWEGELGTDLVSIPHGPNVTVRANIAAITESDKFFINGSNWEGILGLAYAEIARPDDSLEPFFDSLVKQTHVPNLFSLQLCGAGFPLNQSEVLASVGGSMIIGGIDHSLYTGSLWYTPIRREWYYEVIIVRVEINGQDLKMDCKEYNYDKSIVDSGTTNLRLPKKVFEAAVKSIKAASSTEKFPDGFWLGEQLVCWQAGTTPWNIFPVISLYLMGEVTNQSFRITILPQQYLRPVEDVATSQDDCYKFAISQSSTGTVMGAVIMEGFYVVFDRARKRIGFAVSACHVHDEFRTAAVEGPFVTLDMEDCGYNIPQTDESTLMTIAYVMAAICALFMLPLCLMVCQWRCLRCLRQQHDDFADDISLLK

As for `C=CC[C@H](NC(=O)C1(OC)CC1)[C@H](O)CN[C@H]1CC2(CCC2)Oc2ncc(CC(C)(C)C)cc21` [Example 151, N-((1S)-1-((1R)-2-(((4′S)-6′-(2,2-dimethylpropyl)-3′,4′-dihydrospiro[cyclobutane-1,2′-pyrano[2,3-b]pyridin]-4′-yl)amino)-1-hydroxyethyl)-3-buten-1-yl)-1-(methyloxy)cyclopropanecarboxamide], the IC50 was 454 nM at BACE1 and 878 nM in assay [1] (setting [2]).
Take `C=CC[C@H](NC(=O)c1cscn1)[C@H](O)CN[C@H]1CC2(CCC2)Oc2ncc(CC(C)(C)C)cc21` [Example 134, N-((1S)-1-((1R)-2-(((4′S)-6′-(2,2-dimethylpropyl)-3′,4′-dihydrospiro[cyclobutane-1,2′-pyrano[2,3-b]pyridin]-4′-yl)amino)-1-hydroxyethyl)-3-buten-1-yl)-1,3-thiazole-4-carboxamide]: the IC50 is 130 nM on BACE1 and 664 nM in assay [1] (setting [2]).
On the same counts, the results for `C=CC[C@H](NC(=O)C(C)(C)F)[C@H](O)CN[C@H]1CC2(CCC2)Oc2ncc(CC(C)(C)C)cc21` [Example 141, N-((1S)-1-((1R)-2-(((4′S)-6′-(2,2-dimethylpropyl)-3′,4′-dihydrospiro[cyclobutane-1,2′-pyrano[2,3-b]pyridin]-4′-yl)amino)-1-hydroxyethyl)-3-buten-1-yl)-2-fluoro-2-methylpropanamide] are 951 nM and 483 nM.
In the case of `C=CC[C@H](NC(=O)c1cocn1)[C@H](O)CN[C@H]1CC2(CCC2)Oc2ncc(CC(C)(C)C)cc21` [Example 129, N-((1S)-1-((1R)-2-(((4′S)-6′-(2,2-dimethylpropyl)-3′,4′-dihydrospiro[cyclobutane-1,2′-pyrano[2,3-b]pyridin]-4′-yl)amino)-1-hydroxyethyl)-3-buten-1-yl)-1,3-oxazole-4-carboxamide], the figures for the IC50 (at BACE1; in assay [1] (setting [2])) were 226 nM and 1040 nM, respectively.
With `C=CC[C@H](NC(C)=O)[C@H](O)CN[C@H]1CC2(CCC2)Oc2ncc(C[C@@H](C)C(F)(F)F)cc21` [Example 125, N-((1S)-1-((1R)-1-hydroxy-2-(((4′S)-6′-((2R)-3,3,3-trifluoro-2-methylpropyl)-3′,4′-dihydrospiro[cyclobutane-1,2′-pyrano[2,3-b]pyridin]-4′-yl)amino)ethyl)-3-buten-1-yl)acetamide], the results for the IC50 (at BACE1; in assay [1] (setting [2])) were 199 nM and 122 nM, respectively.
On the same counts, the results for `C=CC[C@H](NC(=O)COC(C)(C)C)[C@H](O)CN[C@H]1CC2(CCC2)Oc2ncc(CC(C)(C)C)cc21` [Example 144, 2-((1,1-dimethylethyl)oxy)-N-((1S)-1-((1R)-2-(((4′S)-6′-(2,2-dimethylpropyl)-3′,4′-dihydrospiro[cyclobutane-1,2′-pyrano[2,3-b]pyridin]-4′-yl)amino)-1-hydroxyethyl)-3-buten-1-yl)acetamide] are 344 nM and 1130 nM.
On the same counts, the results for `C=CCC(NC(=O)C1CN(C(C)=O)CCO1)C(O)CNC1CC2(CCC2)Oc2ncc(CC(C)(C)C)cc21` [Example 155, (2R)-4-acetyl-N-((1S)-1-((1R)-2-(((4′S)-6′-(2,2-dimethylpropyl)-3′,4′-dihydrospiro[cyclobutane-1,2′-pyrano[2,3-b]pyridin]-4′-yl)amino)-1-hydroxyethyl)-3-buten-1-yl)-2-morpholinecarboxamide; (2S)-4-acetyl-N-((1S)-1-((1R)-2-(((4′S)-6′-(2,2-dimethylpropyl)-3′,4′-dihydrospiro[cyclobutane-1,2′-pyrano[2,3-b]pyridin]-4′-yl)amino)-1-hydroxyethyl)-3-buten-1-yl)-2-morpholinecarboxamide] are 49 nM and 60 nM.
On the same counts, the results for `C=CC[C@H](NC(=O)[C@H](C)OC)[C@H](O)CN[C@H]1CC2(CCC2)Oc2ncc(CC(C)(C)C)cc21` [Example 95, (2S)-N-((1S)-1-((1R)-2-(((4′S)-6′-(2,2-dimethylpropyl)-3′,4′-dihydrospiro[cyclobutane-1,2′-pyrano[2,3-b]pyridin]-4′-yl)amino)-1-hydroxyethyl)-3-buten-1-yl)-2-(methyloxy)propanamide] are 145 nM and 637 nM.
As for `C=CC[C@H](NC(=O)c1cc(F)c(F)cc1F)[C@H](O)CN[C@H]1CC2(CCC2)Oc2ncc(CC(C)(C)C)cc21` [Example 77, N-((1S)-1-((1R)-2-(((4′S)-6′-(2,2-dimethylpropyl)-3′,4′-dihydrospiro[cyclobutane-1,2′-pyrano[2,3-b]pyridin]-4′-yl)amino)-1-hydroxyethyl)-3-buten-1-yl)-2,4,5-trifluorobenzamide], the IC50 at BACE1 is 440 nM; in assay [1] (setting [2]), 3310 nM.
As for `CCC[C@H](NC(=O)[C@@H]1CCCO1)[C@H](O)CN[C@H]1CC2(CCC2)Oc2c1cc(CC(C)(C)C)nc2Cl` [compound 224, (2S)-N-((1S)-1-((1R)-2-(((4′S)-8′-chloro-6′-(2,2-dimethylpropyl)-3′,4′-dihydrospiro[cyclobutane-1,2′-pyrano[2,3-c]pyridin]-4′-yl)amino)-1-hydroxyethyl)butyl)tetrahydro-2-furancarboxamide], the figures for the IC50 (on BACE1 (read-out: BACE 1 FRET assay); in assay [1] (HEK293)) were 533 nM and 2840 nM, respectively.
`C=CC[C@H](NC(=O)COC)[C@H](O)CN[C@H]1CC2(CCC2)Oc2ncc(CC(C)(C)C#N)cc21` [Example 55, N-((1S)-1-((1R)-2-(((4′S)-6′-(2-cyano-2-methylpropyl)-3′,4′-dihydrospiro[cyclobutane-1,2′-pyrano[2,3-b]pyridin]-4′-yl)amino)-1-hydroxyethyl)-3-buten-1-yl)-2-(methyloxy)acetamide]: the IC50 at BACE1 is 3400 nM; in assay [1] (setting [2]), 7580 nM.
On the same counts, the results for `C=CC[C@H](NC(=O)c1cccnc1F)[C@H](O)CN[C@H]1CC2(CCC2)Oc2ncc(CC(C)(C)C)cc21` [Example 67, N-((1S)-1-((1R)-2-(((4′S)-6′-(2,2-dimethylpropyl)-3′,4′-dihydrospiro[cyclobutane-1,2′-pyrano[2,3-b]pyridin]-4′-yl)amino)-1-hydroxyethyl)-3-buten-1-yl)-2-fluoro-3-pyridinecarboxamide] are 199 nM and 517 nM.
On the same counts, the results for `C=CC[C@H](NC(=O)c1ccc2c(c1)OCO2)[C@H](O)CN[C@H]1CC2(CCC2)Oc2ncc(CC(C)(C)C)cc21` [Example 102, N-((1S)-1-((1R)-2-(((4′S)-6′-(2,2-dimethylpropyl)-3′,4′-dihydrospiro[cyclobutane-1,2′-pyrano[2,3-b]pyridin]-4′-yl)amino)-1-hydroxyethyl)-3-buten-1-yl)-1,3-benzodioxole-5-carboxamide] are 75 nM and 707 nM.
As for `C=CC[C@H](NC(=O)COC(C)C)[C@H](O)CN[C@H]1CC2(CCC2)Oc2ncc(CC(C)(C)C)cc21` [Example 145, N-((1S)-1-((1R)-2-(((4′S)-6′-(2,2-dimethylpropyl)-3′,4′-dihydrospiro[cyclobutane-1,2′-pyrano[2,3-b]pyridin]-4′-yl)amino)-1-hydroxyethyl)-3-buten-1-yl)-2-((1-methylethyl)oxy)acetamide], the IC50 at BACE1 is 77 nM; in assay [1] (setting [2]) it was 301 nM.
